# According to ChEMBL document CHEMBL1201862, “PubChem BioAssay data set” (2004):
# Active and inactive are the calls of the source.
# Legend:
# [1] = target: T1, Corticotropin-releasing factor receptor 2/Corticotropin-releasing factor-binding protein (Homo sapiens, UniProt P24387+Q13324); test: activators of CRF receptor 2 with binding protein – uHTS hits, confirmation (AID 602473); format: functional; details: read-out: EC50_Mean
# T1 sequence (Q13324 whole entry): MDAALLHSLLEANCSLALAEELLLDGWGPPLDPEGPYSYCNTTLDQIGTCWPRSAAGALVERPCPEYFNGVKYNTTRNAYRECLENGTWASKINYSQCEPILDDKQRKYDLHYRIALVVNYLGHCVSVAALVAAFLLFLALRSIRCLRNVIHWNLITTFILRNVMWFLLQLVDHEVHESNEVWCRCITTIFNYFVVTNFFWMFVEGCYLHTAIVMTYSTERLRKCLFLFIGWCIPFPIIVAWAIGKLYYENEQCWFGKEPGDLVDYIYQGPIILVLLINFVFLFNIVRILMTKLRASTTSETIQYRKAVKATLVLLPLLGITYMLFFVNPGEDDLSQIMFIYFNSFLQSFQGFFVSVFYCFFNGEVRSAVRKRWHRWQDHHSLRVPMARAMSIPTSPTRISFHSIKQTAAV
# T1 sequence (P24387 whole entry): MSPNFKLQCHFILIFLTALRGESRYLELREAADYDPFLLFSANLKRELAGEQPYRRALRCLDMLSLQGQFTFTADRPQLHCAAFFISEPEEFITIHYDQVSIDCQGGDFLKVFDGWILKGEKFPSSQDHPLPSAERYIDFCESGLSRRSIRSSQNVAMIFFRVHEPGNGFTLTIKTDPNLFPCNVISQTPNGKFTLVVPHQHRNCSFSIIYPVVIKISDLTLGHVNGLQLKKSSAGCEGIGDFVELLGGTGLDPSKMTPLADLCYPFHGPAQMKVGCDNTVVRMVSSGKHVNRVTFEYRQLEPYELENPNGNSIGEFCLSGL
# [2] = target: T1, Corticotropin-releasing factor receptor 2/Corticotropin-releasing factor-binding protein; test: Dose Response confirmation of uHTS hits for small molecule antagonists of the CRF-binding protein and CRF-R2 receptor complex.; format: functional; details: read-out: IC50_Mean
# [3] = target: Cytochrome P450 3A4 (Homo sapiens, UniProt P08684);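 also: CYP3A4 tested as one member of a cytochrome P450 panel screen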
# [4] = target: Cytochrome P450 2C9 (Homo sapiens, UniProt P11712)
# [5] = target: Cytochrome P450 2C19 (Homo sapiens, UniProt P33261); test: Cytochrome panel assay with activity outcomes. Panel member name: p450-cyp2c19 Compounds with AC50 equal or less than 10 uM are considered active; format: functional
# [6] = target: T2, Streptokinase A (Streptococcus pyogenes serotype M1, UniProt P10520); test: S. pyogenes streptokinase expression inhibitors, potency, dose response, plasminogen activation absorbance, OD405 (AID 1914); format: functional, Streptococcus pyogenes M1 GAS;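 also: secreted streptokinase activity via plasminogen activation per viability signal from cell pellet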
# T2 sequence (P10520 whole entry): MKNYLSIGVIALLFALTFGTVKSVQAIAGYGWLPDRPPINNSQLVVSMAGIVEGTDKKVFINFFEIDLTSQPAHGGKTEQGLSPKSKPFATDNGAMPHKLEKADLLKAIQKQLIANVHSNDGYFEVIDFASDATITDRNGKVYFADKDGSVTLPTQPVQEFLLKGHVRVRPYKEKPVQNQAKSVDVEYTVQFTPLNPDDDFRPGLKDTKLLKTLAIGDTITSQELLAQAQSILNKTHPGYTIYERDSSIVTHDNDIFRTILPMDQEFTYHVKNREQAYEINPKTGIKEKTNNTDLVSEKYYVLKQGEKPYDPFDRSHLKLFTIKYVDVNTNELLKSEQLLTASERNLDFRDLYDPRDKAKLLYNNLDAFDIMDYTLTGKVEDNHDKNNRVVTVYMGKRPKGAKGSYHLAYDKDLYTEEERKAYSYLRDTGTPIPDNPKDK
# [7] = tested on: Streptococcus sp. 'group A'; test: growth inhibition of control SK(-) GAS strain, dose response, counter-screen for streptokinase expression inhibitor project, luminescence, kanamycin, BacTiterGlo, confirmation (AID 1900); format: functional, organism-based
# [8] = tested on: Streptococcus; test: Group A Streptococcus viability loss, dose response, counter-screen for streptokinase expression inhibitor project, luminescence, BacTiterGlo (AID 1915); format: functional, organism-based;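 also: potency for reduction of bacterial viability or growth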
# [9] = P. falciparum Dd2 growth inhibitors, dose response, SYBR Green, cherry-picked samples (AID 1159567); format: functional, cell-based
# [10] = target: T3, Cytochrome P450 1A2 (Homo sapiens, UniProt P05177);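 also: PubChem cytochrome P450 panel assay, CYP1A2 panel member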
# T3 sequence (P05177 whole entry): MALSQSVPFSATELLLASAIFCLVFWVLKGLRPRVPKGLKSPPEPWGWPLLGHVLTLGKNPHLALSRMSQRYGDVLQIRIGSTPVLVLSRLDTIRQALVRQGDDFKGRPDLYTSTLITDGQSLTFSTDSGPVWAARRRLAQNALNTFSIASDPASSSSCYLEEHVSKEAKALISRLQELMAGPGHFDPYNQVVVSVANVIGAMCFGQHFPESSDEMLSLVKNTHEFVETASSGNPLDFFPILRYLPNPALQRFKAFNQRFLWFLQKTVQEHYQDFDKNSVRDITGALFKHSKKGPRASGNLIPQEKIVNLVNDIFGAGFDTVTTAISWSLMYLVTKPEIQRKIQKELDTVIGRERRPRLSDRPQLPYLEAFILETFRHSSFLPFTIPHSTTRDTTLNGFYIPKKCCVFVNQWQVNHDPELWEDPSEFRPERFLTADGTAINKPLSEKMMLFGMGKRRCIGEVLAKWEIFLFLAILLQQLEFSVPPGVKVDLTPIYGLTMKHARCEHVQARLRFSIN
# [11] = Luminescence Cell-Based Dose Confirmation HTS to Identify Activators of 5'UTR Stem-Loop Driven Alpha-Synuclein mRNA Translation in H4 Neuroglioblastoma Cells. [Related pubchem assays: 1829 (Project Summary), 1814 (Primary HTS)]; format: functional
# [12] = tested on: H4; test: Luminescence Cell-Based Dose Response HTS to Identify Activators of 5'UTR Stem-Loop Driven Prion Protein mRNA Translation in H4 Neuroglioblastoma Cells. [Related pubchem assays: 1829 (Project Summary), 1814 (Primary HTS)]; format: functional; details: Homo sapiens
# [13] = Luminescence Cell-Based Dose Response HTS to Identify Activators of Luciferase Translation or Activity in H4 […] Cells. [Related pubchem assays: 1829 (Project Summary), 1814 (Primary HTS)]; format: functional
# [14] = target: Cytochrome P450 2D6 (Homo sapiens, UniProt P10635);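 also: CYP2D6 member of a cytochrome P450 panel assay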
# Cytochrome P450 2D6, sequence (P10635 whole entry): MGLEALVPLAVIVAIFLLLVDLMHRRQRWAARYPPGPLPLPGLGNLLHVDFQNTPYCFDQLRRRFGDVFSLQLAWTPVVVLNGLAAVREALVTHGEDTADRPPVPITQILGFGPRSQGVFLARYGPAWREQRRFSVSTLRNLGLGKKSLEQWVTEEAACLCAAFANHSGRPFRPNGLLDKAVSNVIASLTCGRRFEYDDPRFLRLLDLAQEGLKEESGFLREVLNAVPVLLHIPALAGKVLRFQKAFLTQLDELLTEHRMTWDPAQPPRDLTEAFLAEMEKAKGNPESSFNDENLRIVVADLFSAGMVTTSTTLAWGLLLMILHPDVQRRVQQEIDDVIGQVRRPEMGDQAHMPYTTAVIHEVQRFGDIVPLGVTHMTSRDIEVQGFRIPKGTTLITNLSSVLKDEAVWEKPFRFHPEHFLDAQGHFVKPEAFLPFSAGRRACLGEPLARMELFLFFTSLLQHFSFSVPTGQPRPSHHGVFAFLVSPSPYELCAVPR
# Cytochrome P450 2C9, sequence (P11712 whole entry): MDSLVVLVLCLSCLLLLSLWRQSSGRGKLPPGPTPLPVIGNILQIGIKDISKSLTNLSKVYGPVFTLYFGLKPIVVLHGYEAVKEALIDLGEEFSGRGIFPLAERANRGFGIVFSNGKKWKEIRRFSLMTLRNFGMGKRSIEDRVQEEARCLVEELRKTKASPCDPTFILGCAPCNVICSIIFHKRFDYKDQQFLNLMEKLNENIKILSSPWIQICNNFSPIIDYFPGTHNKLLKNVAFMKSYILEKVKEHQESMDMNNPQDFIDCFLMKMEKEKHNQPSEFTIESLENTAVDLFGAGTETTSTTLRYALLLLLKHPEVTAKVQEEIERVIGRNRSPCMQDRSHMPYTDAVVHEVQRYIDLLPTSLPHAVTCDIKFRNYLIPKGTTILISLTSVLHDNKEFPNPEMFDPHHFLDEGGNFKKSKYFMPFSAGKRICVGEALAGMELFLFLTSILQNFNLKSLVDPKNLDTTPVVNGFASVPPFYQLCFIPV
# Cytochrome P450 2C19, sequence (P33261 whole entry): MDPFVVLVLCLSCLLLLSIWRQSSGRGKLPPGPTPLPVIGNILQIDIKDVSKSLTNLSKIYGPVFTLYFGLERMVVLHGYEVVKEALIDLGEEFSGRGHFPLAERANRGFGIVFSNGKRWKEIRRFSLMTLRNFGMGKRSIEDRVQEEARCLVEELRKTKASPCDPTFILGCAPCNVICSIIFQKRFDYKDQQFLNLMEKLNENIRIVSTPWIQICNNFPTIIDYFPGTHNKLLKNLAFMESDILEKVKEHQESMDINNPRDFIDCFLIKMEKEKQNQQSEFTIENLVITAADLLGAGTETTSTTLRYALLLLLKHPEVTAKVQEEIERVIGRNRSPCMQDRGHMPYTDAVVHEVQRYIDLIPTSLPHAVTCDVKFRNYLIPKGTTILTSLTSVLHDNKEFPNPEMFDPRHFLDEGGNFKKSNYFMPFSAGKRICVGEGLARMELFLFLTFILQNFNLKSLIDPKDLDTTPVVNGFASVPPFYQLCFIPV
# Cytochrome P450 3A4, sequence (P08684 whole entry): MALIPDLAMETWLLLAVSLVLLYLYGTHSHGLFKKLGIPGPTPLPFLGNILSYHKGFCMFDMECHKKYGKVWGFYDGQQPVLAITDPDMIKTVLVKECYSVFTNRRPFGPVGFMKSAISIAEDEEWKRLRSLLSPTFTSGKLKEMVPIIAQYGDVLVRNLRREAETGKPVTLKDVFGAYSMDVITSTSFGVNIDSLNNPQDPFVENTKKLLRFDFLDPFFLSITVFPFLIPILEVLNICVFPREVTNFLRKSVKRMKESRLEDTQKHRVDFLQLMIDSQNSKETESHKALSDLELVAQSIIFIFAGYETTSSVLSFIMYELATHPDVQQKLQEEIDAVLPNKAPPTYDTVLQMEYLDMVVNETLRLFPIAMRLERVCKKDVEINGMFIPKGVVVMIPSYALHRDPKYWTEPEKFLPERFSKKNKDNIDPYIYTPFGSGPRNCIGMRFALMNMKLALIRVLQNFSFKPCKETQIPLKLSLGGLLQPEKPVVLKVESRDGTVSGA
structure (smiles),measurement,setting,value
CSc1ncc(Cl)c(C(=O)Nc2ccc(S(=O)(=O)N3CCOCC3)cc2)n1,EC50,[1],> 53 µM (inactive)
same,IC50,[2],> 47.1 µM (inactive)
COC(=O)C(C)Sc1nc(O)c2cnn(-c3ccc(C)cc3)c2n1 (stereo not given),AC50,[3],14.1 µM (inconclusive)
same,AC50,[4],3.55 µM (inconclusive)
same,AC50,[5]; read-out: AC50,7.94 µM (inconclusive)
CS(=O)(=O)Nc1nc2n(n1)C(c1ccccc1)CC(c1ccccc1)N2 (stereo not given),EC50,[1],> 53 µM (inactive)
same,IC50,[2],> 47.1 µM (inactive)
CCc1ccc(N2CC(C)Cn3c2nc2c3c(=O)n(CCN3CCOCC3)c(=O)n2C)cc1 (stereo not given),AC50,[3],39.8 µM (inconclusive)
same,AC50,[4],0.178 µM (inconclusive)
CCCn1c(=N)c(S(=O)(=O)c2ccccc2)cc2c(=O)n3ccccc3nc21,EC50,[1],> 53 µM (inactive)
same,IC50,[2],> 47.1 µM (inactive)
CCc1ccccc1NC(=O)NC(C)c1ccc2c(c1)OCO2 (stereo not given),EC50,[6],> 150 µM (not active)
same,EC50,[7],> 150 µM (not active)
same,EC50,[8],> 150 µM (not active)
same,EC50,[1],> 53 µM (inactive)
same,IC50,[2],> 47.1 µM (inactive)
CCOC(=O)c1cc(=O)cc(C(=O)OCC)o1,EC50,[1],> 53 µM (inactive)
same,IC50,[2],> 47.1 µM (inactive)
COc1ccc(CN2CC3(CN(C(C)=O)C3)c3c([nH]c4cc(OC)ccc34)[C@@H]2CO)cc1,AC50,[9],9.9 µM (active)
COc1cc(CN2CC3(CCN(C(=O)c4cccnc4)CC3)c3c([nH]c4cc(OC)ccc34)[C@@H]2CO)cc(OC)c1,AC50,[9],5.84 µM (active)
Cc1ccc(C)c(NC(=S)Nc2ncccc2C)c1,EC50,[1],> 53 µM (inactive)
same,IC50,[2],> 47.1 µM (inactive)
Cc1cccc(C)c1OC[C@@H](N)C(C)C,AC50,[3],20 µM (inconclusive)
O=C(O)c1cc(S(=O)(=O)N2CCCCC2)ccc1F,AC50,[3],1.26 µM (inconclusive)
Nc1ccc(N=Nc2ccccc2)cc1[N+](=O)[O-],EC50,[1],> 53 µM (inactive)
same,IC50,[2],> 47.1 µM (inactive)
COc1ccc(C2=C(C#N)C(=O)OC2)cc1,AC50,[3],31.6 µM (inconclusive)
same,AC50,[4],39.8 µM (inconclusive)
COc1ccc(S(=O)(=O)N2CCCC(C(=O)NCc3ccncc3)C2)cc1 (stereo not given),EC50,[1],> 53 µM (inactive)
same,IC50,[2],> 47.1 µM (inactive)
CO[C@@H]1CN(C)C(=O)c2cc(NC(=O)NC3CCCCC3)ccc2OC[C@@H](C)N(CCc2ccccc2)C[C@H]1C,AC50,[9],5.84 µM (active)
CCCP(=O)(CC(=O)N(CC)CC)c1ccccc1 (stereo not given),EC50,[1],> 53 µM (inactive)
same,IC50,[2],> 47.1 µM (inactive)
CC[C@H]1C2=C3C(CC[C@H]4C(OC)OC[C@](C)([C@@H]34)N(C(=O)OC(C)(C)C)C2)C(CO)C1CO (stereo not given in full),AC50,[3],10 µM (inconclusive)
same,AC50,[10],12.6 µM (inconclusive)
same,AC50,[4],25.1 µM (inconclusive)
same,AC50,[5],inconclusive
O=C(CN1CCCC1)Nc1nc(-c2ccc3c(c2)CCN3C(=O)c2ccccc2F)cs1,EC50,[11],12.9 µM (active)
same,EC50,[12],16.7 µM (inconclusive)
same,EC50,[13],24.4 µM (active)
O=c1c2ccccc2nc2n1CC/C2=C\c1ccccc1[N+](=O)[O-],AC50,[3],10 µM (inconclusive)
same,AC50,[5]; read-out: AC50,3.98 µM (inconclusive)
COC(=O)CSc1nc2ccccn2c(=O)c1C=O,EC50,[11],28.5 µM (active)
same,EC50,[12],> 120 µM (inconclusive)
same,EC50,[13],18.5 µM (active)
CC1=C(C(=O)OCc2ccccc2)C(c2ccc3ccccc3c2)NC(=O)N1CCCCCC(=O)O (stereo not given),AC50,[3],10 µM (inconclusive)
same,AC50,[14],39.8 µM (inconclusive)
same,AC50,[10],20 µM (inconclusive)
same,AC50,[5]; read-out: AC50,39.8 µM (inconclusive)
CC(=O)C(Sc1nn(C)c(=S)s1)C(=O)Nc1ccccc1 (stereo not given),EC50,[11],23.9 µM (active)
same,EC50,[12],14.3 µM (active)
same,EC50,[13],12.4 µM (active)
Cc1cc(-c2cccc([N+](=O)[O-])c2)nc2ccc3ccccc3c12,AC50,[3],3.16 µM (inconclusive)
same,AC50,[5]; read-out: AC50,20 µM (inconclusive)
c1ccc(-c2ccc(-c3csnn3)cc2)cc1,EC50,[11],0.186 µM (active)
same,EC50,[12],27.5 µM (active)
same,EC50,[13],0.326 µM (active)
O=[N+]([O-])/C(C(Cl)=C(Cl)Cl)=C(/NC1CC1)Sc1ccccc1,EC50,[1],> 53 µM (inactive)
same,IC50,[2],> 47.1 µM (inactive)
C/C(CCN1CCc2nc(-c3ccccc3)c(-c3ccccc3)cc2C1)=N\OC[C@@H](C)[C@H](OCc1ccccc1)C(C)C,AC50,[3],3.98 µM (inconclusive)
CC1CCc2c(sc3nc(CSc4n[nH]c(N)n4)nc(O)c23)C1 (stereo not given),EC50,[11],15.5 µM (active)
same,EC50,[12],13.2 µM (active)
same,EC50,[13],27.2 µM (active)
Cc1nc2cnc(N3CCNCC3)nc2n(-c2ccccc2)c1=O,AC50,[3],31.6 µM (inconclusive)
COc1ccccc1C1C(C(=O)c2sc(C)nc2C)=C(O)C(=O)N1CCN1CCOCC1 (stereo not given),EC50,[1],> 53 µM (inactive)
same,IC50,[2],> 47.1 µM (inactive)
Cn1c(=O)n(Cc2ccccc2Cl)c2ccccc21,EC50,[1],> 53 µM (inactive)
same,IC50,[2],> 47.1 µM (inactive)
CS(=O)(=O)c1ccccc1COC(=O)Nc1ccc(Cl)cc1,AC50,[3],12.6 µM (inconclusive)
same,AC50,[14],10 µM (inconclusive)
COc1cccc(/C(C)=N/NS(=O)(=O)c2ccc(Cl)cc2)c1,EC50,[1],> 53 µM (inactive)
same,IC50,[2],> 47.1 µM (inactive)
COc1cccc(C(=O)Nc2ccc3c(c2)C(=O)N(C)C[C@@H](OC)[C@H](C)CN(CCc2ccccc2)[C@H](C)CO3)c1,AC50,[9],4.35 µM (active)
OC[C@H]1CC[C@@H]2O[C@H](CCc3ccc(C#CCc4ccccc4)cc3)[C@@H](n3cc(-c4ccccc4)nn3)C[C@@H]2O1,AC50,[9],6.17 µM (active)
CN1c2ccc(C#Cc3cccnc3)cc2[C@H]2[C@H](CCN2C(=O)C2CCCC2)[C@H]1CO,AC50,[9],4 µM (active)
O=C(CSc1nc(-c2ccc(F)cc2)cs1)N1CCOCC1,EC50,[11],10.1 µM (active)
same,EC50,[12],14.3 µM (active)
same,EC50,[13],7.79 µM (active)
O=C(O)c1ccccc1-c1ccccc1C(=O)Nc1ccccc1,AC50,[3],28.2 µM (inconclusive)
same,AC50,[4],35.5 µM (inconclusive)
Cc1noc(C)c1COC(=O)c1ccc(-c2nc3ccccc3s2)s1,EC50,[11],0.414 µM (active)
same,EC50,[12],13 µM (active)
same,EC50,[13],0.245 µM (active)
O=c1cc(CN2CCN(Cc3ccccc3)CC2)c2cc(O)ccc2o1,EC50,[1],> 53 µM (inactive)
same,IC50,[2],> 47.1 µM (inactive)
